We go through 1 compound from ChEMBL document CHEMBL1151664, “Antitumor agents, 75. Synthesis of cytotoxic anthraquinones digiferruginol and morindaparvin-B” (1985).

The test deals with KB. In words: Cytotoxicity against human KB cells. The test is classed as functional. As to conditions: read-out: ED50 (the source's name).

Values after ≈ are worked out from the molar mass of the structure shown.

Take `O=C1c2ccccc2C(=O)c2c1ccc(CO)c2O` [DIGIFERRUGINOL]: the EC50 was determined as 0.09 mg/L (≈ 0.354 µM).
